Data taken from US20230391772A1, “METHODS AND COMPOSITIONS FOR TARGETED PROTEIN DEGRADATION” (Ranok Therapeutics (Hangzhou) Co. Ltd., priority 2020, published 2023).

Columns and labels:
[1] = target: T1, HSP90a protein (Homo sapiens, UniProt P07900); experiment: HSP90α-binding fluorescent polarization (FP) assay, BODIPY-labeled RNK04010 probe; settings: FP competition with RNK04010 (BODIPY-labeled), 5 nM, 300 min at 25° C.
T1 construct: purchased BPS Bioscience 50298
Summary of the method: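 Polarization signal was read after equilibration at 25° C, for 120 min with FITC-geldanamycin or 300 min with the BODIPY-tagged RNK04010 probe, each at 5 nM final. Compounds spanned 20 μM down to 5.2 nM in 2.5-fold dilutions against the HSP90a N-terminal domain.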

[2] = test system: MIA PaCa-2 human pancreatic carcinoma; experiment: MIA PaCa-2 CCK-8 proliferation assay; type: cell-based; settings: Homo sapiens, MIA PaCa-2, 72 h, MIA PaCa-2 cells
Summary of the method: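 Three KRAS(G12C) lines are used, MIA PaCa-2 at two mutant copies and the NSCLC lines NCI-H358 and NCI-H23 at one. Each compound is titrated 3-fold from 20 μM to 1.02 nM, and proliferation is scored by CCK-8.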

[3] = target: KRAS(G12C) (Homo sapiens, UniProt P01116, G12C); experiment: KRAS(G12C)/SOS1 homogeneous time-resolved fluorescence (HTRF) assay; parameters: purchased Cisbio 63ADK000CB16PEG; settings: absence of GTP, 4° C. for 3 hr, read-out: KRAS (G12C) binding
Summary of the method: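 HTRF kit measuring compound-induced block of KRAS(G12C)-SOS1 interaction without GTP. Compounds tested as 3-fold serial dilutions down to 1.02 nM, incubated with reaction components 3 h at 4 °C in sealed plates before fluorescence read.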

KRAS(G12C), sequence (P01116 1-188 isoform P01116-2 G12C): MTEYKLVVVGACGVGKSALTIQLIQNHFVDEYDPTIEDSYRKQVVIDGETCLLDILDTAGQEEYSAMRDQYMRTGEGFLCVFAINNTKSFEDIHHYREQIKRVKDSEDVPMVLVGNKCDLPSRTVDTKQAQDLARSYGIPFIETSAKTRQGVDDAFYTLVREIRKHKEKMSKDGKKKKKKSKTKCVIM

SMILES	IC50 [1] [nM]	EC50 [2] [nM]	IC50 [3] [nM]
C=CC(=O)N1CCN(c2nc(OC[C@@H]3C[C@H](N4CCC(C(=O)N5CCN(Cc6ccc(-n7c(O)nnc7-c7cc(C)c(O)cc7O)cc6)CC5)CC4)CN3C)nc3c2CCN(c2cccc4cccc(Cl)c24)C3)C[C@@H]1CC#N [Compound 321, 2-[(2S)-4-[7-(8-chloronaphthalen-1-yl)-2-{[(2S,4S)-4-{4-[4-({4-[3-(2,4-dihydroxy-5-methylphenyl)-5-hydroxy-1,2,4-triazol-4-yl]phenyl}methyl)piperazine-1-carbonyl]piperidin-1-yl}-1-methylpyrrolidin-2-yl]methoxy}-5H,6H,8H-pyrido[3,4d]-pyrimidin-4-yl]-1-(prop-2-enoyl)piperazin-2-yl]acetonitrile]	< 100	100 to 1000	< 100
C=CC(=O)N1CCN(c2nc(OC[C@@H]3C[C@@H](OC(=O)NCc4ccc(-n5c(O)nnc5-c5cc(CC)c(O)cc5O)cc4)CN3C)nc3c2CCN(c2cccc4cccc(Cl)c24)C3)C[C@@H]1CC#N [Compound 295, (3R,5S)-5-(((4-((S)-4-acryloyl-3-(cyanomethyl)piperazin-1-yl)-7-(8-chloronaphthalen-1-yl)-5,6,7,8-tetrahydropyrido[3,4-d]pyrimidin-2-yl)oxy)methyl)-1-methylpyrrolidin-3-yl 4-(3-(5-ethyl-2,4-dihydroxyphenyl)-5-hydroxy-4H-1,2,4-triazol-4-yl)benzylcarbamate]	< 100	> 1000	100 to 1000

Now from value to molecule:

IC50 [1] [nM]	EC50 [2] [nM]	IC50 [3] [nM]	SMILES
< 100	100 to 1000	100 to 1000	C=CC(=O)N1CCN(c2nc(OC[C@@H]3C[C@H](N4CCC(C(=O)NCCc5ccc(CN6CCC(Cc7ccc(-n8c(C(=O)NCC(F)(F)F)nnc8-c8cc(C(C)C)c(O)cc8O)cc7)CC6)cc5)CC4)CN3C)nc3c2CCN(c2cccc4cccc(Cl)c24)C3)C[C@@H]1CC#N [Compound 330, 1-[(3S,5S)-5-({[7-(8-chloronaphthalen-1-yl)-4-[(3S)-3-(cyanomethyl)-4-(prop-2-enoyl)piperazin-1-yl]-5H,6H,8H-pyrido[3,4-d]pyrimidin-2-yl]oxy}methyl)-1-methylpyrrolidin-3-yl]-N-[2-(4-{[4-({4-[3-(2,4-dihydroxy-5-isopropylphenyl)-5-[(2,2,2-trifluoroethyl)carbamoyl]-1,2,4-triazol-4-yl]phenyl}methyl)piperidin-1-yl]methyl}phenyl)ethyl]piperidine-4-carboxamide]
< 100	100 to 1000	< 100	C=CC(=O)N1CCN(c2nc(OC[C@@H]3C[C@H](N4CCC(C(=O)N5CCN(Cc6ccc(-n7c(C(=O)NCCN8CCN(S(C)(=O)=O)CC8)nnc7-c7cc(C(C)C)c(O)cc7O)cc6)CC5)CC4)CN3C)nc3c2CCN(c2cccc4cccc(Cl)c24)C3)C[C@@H]1CC#N [Compound 327, 4-{4-[(4-{1-[(3S,5S)-5-({[7-(8-chloronaphthalen-1-yl)-4-[(3S)-3-(cyanomethyl)-4-(prop-2-enoyl)piperazin-1-yl]-5H,6H,8H-pyrido[3,4-d]pyrimidin-2-yl]oxy}methyl)-1-methylpyrrolidin-3-yl]piperidine-4-carbonyl}piperazin-1-yl)methyl]phenyl}-5-(2,4-dihydroxy-5-isopropylphenyl)-N-[2-(4-methanesulfonylpiperazin-1-yl)ethyl]-1,2,4-triazole-3-carboxamide]
< 100	100 to 1000	100 to 1000	C=CC(=O)N1CCN(c2nc(OCCN3CCC(C(=O)N4CCC(Cc5ccc(-n6c(C(=O)NCC(F)(F)F)nnc6-c6cc(C(C)C)c(O)cc6O)cc5)CC4)CC3)nc3c2CCN(c2cccc4cccc(Cl)c24)C3)C[C@@H]1CC#N [Compound 212, (S)-4-(4-((1-(1-(2-((4-(4-acryloyl-3-(cyanomethyl)piperazin-1-yl)-7-(8-chloronaphthalen-1-yl)-5,6,7,8-tetrahydropyrido[3,4-d]pyrimidin-2-yl)oxy)ethyl)piperidine-4-carbonyl)piperidin-4-yl)methyl)phenyl)-5-(2,4-dihydroxy-5-isopropylphenyl)-N-(2,2,2-trifluoroethyl)-4H-1,2,4-triazole-3-carboxamide]
